Here are results for five compounds from US7045324B2, “Tocopherol associated protein and uses thereof” (Research Development Foundation, priority 2002, dated 2006).

The structures appear in SMILES notation.

In data set [1] the test system is tumor cells, normal cells, cells of epithelial or immune origin. Particulars: cited from earlier work.
The subject of data set [2] is MDA-MB-435 cells. Description: Apoptosis (nuclear condensation and fragmentation) of MDA-MB-435 cells transfected with antisense oligomers to TAP. Format: cell-based, human. The note with it: antisense to N-terminal region of TAP (TAP-38 and TAP-46). The procedure: Apoptosis was determined by examination of nuclear condensation and fragmentation.
Transient transfection of MDA-MB-435 cells with antisense oligomers to the N-terminal region of TAP (interferes with TAP-38 as well as TAP-46 transcription) blocked the ability of tocopherol compounds, vitamin E succinate and compound #1, to induce apoptosis, showing that TAP-38 and TAP-46 are involved in the ability of vitamin E compounds to inhibit tumor cell growth (FIG. 10).

The test system of data set [3] is MDA-MB-435 cells. Description: PARP cleavage and c-Jun phosphorylation in MDA-MB-435 cells transfected with antisense or sense oligomers to TAP. Format: cell-based, human. An excerpt: Antisense oligomers to TAP (both TAP-38 and TAP-46), showing that the induction of apoptosis with vitamin E succinate or compound #1 [2,5,7,8-tetramethyl-(2R-(4R,8R,12-trimethyltridecycl) chroman-6-yloxy) acetic acid] to involve tocopherol associated protein.

The test system of data set [4] is MDA-MB-435 human breast cancer cells. Description: Apoptosis (DAPI staining) of TAP siRNA transfected MDA-MB-435 cells treated with tocopherol-based compounds. The class given is cell-based. Particulars: TAP siRNA for 6 days, then compound for 2 days (α-TEA 20 μg/ml, VES 20 μg/ml, δT3 5 μg/ml). The procedure: MDA-MD-435 cells at 13.5×10^6/55 cm^2 cell culture dish (100 mm×20 mm; catalog # 430293, Corning Inc., Corning, N.Y.) were transiently transfected with in vitro transcribed TAP siRNA (Silencer siRNA Construction Kit, Ambion) using siPORT Lipid following company instructions (catalog # 4505, Ambion, Austin, Tex.). Cells were incubated overnight in culture media, then washed two times with non-supplemented regular MEM media. Next, the cells were incubated overnight in the presence of siRNA/siPORT Lipid [[…]/16 μl or 16 μl siPORT lipid only (as control)] in 5 ml of serum free media (OPTI-MEMI, catalog # 31985–070, Gibco). SiRNA/siPORT Lipid complex was generated by two steps: 1) 16 μl of siPORT lipid was incubated with 60 μl of OPTI-MEMI media for 30 minutes at room temperature; and 2) 60 μl of siPORT Lipid in OPTI-MEMI was then incubated for 20 minutes with 500 μl of diluted TAP siRNA [or 500 μl media as control (5 μl of 10 μl TAP siRNA in 500 μl of OPTI-MEMI media)]. The transfected cells were then split into 12 wells at 1.5×10^5 cells/well for apoptosis and 55 cm^2 dish at 3.5×10^6 cells/dish for Western immunoblot analyses.
The cells in 55 cm^2 dishes were incubated for 8 hours with culture media followed by treatment with 20 μg/ml of α-TEA in 2% serum treatment media for 15 hours. Cells were collected and fractionated, and the lysates were analyzed for TAP protein levels by Western immunoblotting (FIG. 13A). The cells plated in 12-well plates were incubated overnight in culture media followed by treatment with 20 μg/ml of α-TEA, 20 μg/ml of VES, and 5 μg/ml of RRR-δ-tocotrienol (dt3) and cultured for 2 days. Apoptosis was evaluated by DAPI staining (FIG. 13B).
For example, cells transiently transfected with TAP siRNA for 6 days and then treated with α-TEA, VES, or δT3 were inhibited from induction of apoptosis by approximately 60% in comparison to control cells cultured with the three compounds for two days.

Data set [5] has the same test system. Description: Apoptosis of MDA-MB-435 cells transiently transfected with TAP-38 or TAP-46 cDNA and treated with compound. The note with it: 20 micrograms/ml compound. The class given is cell-based. The source says:
Transient transfection of MDA-MB-435 human breast cancer cells with either TAP-38 or TAP-46 enhanced the ability of tocopherol compound #1 [2,5,7,8-tetramethyl-(2R-(4R,8R,12-trimethyltridecycl) chroman-6-yloxy) acetic acid] to induce apoptosis (FIG. 9).

For the compound `Cc1c(C)c2c(c(C)c1O)CC[C@@](C)(CCC[C@H](C)CCC[C@H](C)CCCC(C)C)O2` [RRR-α-tocopherol], the “antiproliferative and proapoptotic activity” value in data set [1] (cells of epithelial or immune origin) was “neither antiproliferative nor proapoptotic biological activity”.
As to `Cc1c(C)c2c(c(C)c1OC(=O)CCC(=O)O)CC[C@@](C)(CCC[C@H](C)CCC[C@H](C)CCCC(C)C)O2` [VES, RRR-α-tocopheryl succinate], the “ability to induce apoptosis in cells transfected with antisense oligomers to TAP, vs sense oligomers” value with MDA-MB-435 cells [2] is given as “blocked”. In addition, in the data set with MDA-MB-435 cells [3], the “cleavage of poly ADP-ribose polymerase (PARP) in compound-treated cells with antisense vs sense oligomers to TAP” value is on record as “blocked the cleavage” and the “phosphorylation of c-Jun in compound-treated cells with antisense vs sense oligomers to TAP” value is given as “inhibited the phosphorylation”. In addition, the “inhibition of induction of apoptosis by TAP siRNA in comparison to control cells” value in data set [4] is recorded as “approximately 60%”. For the same compound, the “apoptotic inducing effects on normal cells” value in data set [1] (normal cells) is “no apoptotic inducing effects on normal cells”. In data set [1] (tumor cells), the “apoptosis of tumor cells” value is listed as “induces tumor cells to undergo apoptosis”.
For `Cc1c(C)c2c(c(C)c1OCC(=O)O)CC[C@@](C)(CCC[C@H](C)CCC[C@H](C)CCCC(C)C)O2` [compound #1, 2,5,7,8-tetramethyl-(2R-(4R,8R,12-trimethyltridecycl)chroman-6-yloxy) acetic acid], the “ability to induce apoptosis in cells transfected with antisense oligomers to TAP, vs sense oligomers” value with MDA-MB-435 cells [2] is “blocked”. Further, in data set [5], the “ability to induce apoptosis in cells transfected with either TAP-38 or TAP-46, vs vector control” value is listed as “enhanced”. Moreover, in the data set on MDA-MB-435 cells [3], the “cleavage of poly ADP-ribose polymerase (PARP) in compound-treated cells with antisense vs sense oligomers to TAP” value is recorded as “blocked the cleavage” and the “phosphorylation of c-Jun in compound-treated cells with antisense vs sense oligomers to TAP” value is on record as “inhibited the phosphorylation”.
In the case of `Cc1c(C)c2c(c(C)c1OCC(=O)O)CC[C@@](C)(CCC[C@H](C)CCC[C@H](C)CCCC(C)C)O2` [α-TEA], the “inhibition of induction of apoptosis by TAP siRNA in comparison to control cells” value in data set [4] is “approximately 60%”.
Still for that read-out and setting: for `CC(C)=CCC/C(C)=C/CC/C(C)=C/CC[C@]1(C)CCc2cc(O)cc(C)c2O1` [δT3, RRR-δ-tocotrienol] the value was “approximately 60%”.
